Reference: patent US10265299B2, “Composition for promoting hair growth and/or hair restoration containing psoralidin” (Amorepacific Corporation, priority 2015, dated 2019)

How the values were obtained:
NIH3T3 (WNT) cells = assay: Measurement of hair follicle stem cell activity (WNT/β-catenin luciferase assay); assay type: cell-based; settings: psoralidin 0, 0.01, 0.1, 1, 10 μM for 24 hours; ONE-Glo reagent
Method: NIH3T3 (WNT) cells, which are hair follicle stem cells, were seeded in a 96 well plates (Nunc, Wiesbaden, Germany) at a density of 10000 cells/well and cultured for 24 hours (5% CO2, 37° C.). Then, psoralidin was treated at varying concentrations (0, 0.01, 0.1, 1, 10 μM) for 24 hours. 100 μl of ONE-Glo reagent (Promega, Madison, Wis., USA) was added to each well of the 96-well plate and reacted for 3 minutes . After the reaction, the activity of stem eel Is was measured with a luminometer Victor (PerkinElmer, Waltham, Mass., USA).

[1] = test system: androgen-independent prostate cancer cells; settings: in vitro and in vivo; cited from earlier work
hair follicle = assay: Culture of hair follicle organ and observation of hair follicle cycle; assay type: cell-based; settings: psoralidin 1, 10 μM vs samples without psoralidin treatment; human hair follicle organ culture
Method: For the experiment, a hair transplant was performed to a person with a symptom of partial hair loss. Hair follicle samples of 4 groups each having 15 hair follicles were prepared with remaining follicle samples. William's E medium (Gibco, NY, USA) ) including 500 μl culture medium (2 mM L-glutamine (PAA, Coelbe, Germany), 10 μg/ml insulin, 10 ng/ml hydrocortisone (Sigma, St Louis, Mo.), 0.1% Fungizone (Gibco, NY, USA), 10 μg/ml streptomycin, and 100 U/ml penicillin (Gibco, NY, USA) was dispensed into a 24 well plate (Nunc, Wiesbaden, Germany). Then, the cells were cultured at a density of 5 to 6 cells per well on 500 ul of William's E medium (Gibco, NY, USA).
The cultured cell samples were treated with psoralidin at varying concentrations (0, 1, 10 μM). A sample not treated with psoralidin was used as a control and the medium was changed every 2 to 3 days. After the treatment with psoralidin, the hair follicle was photographed using a stereomicroscope (Dongwon CNS, Korea), and the life cycle of Image hair follicle was classified and schematized.

protein kinase Akt = settings: cited from earlier work
[2] = test system: CRH (Corticotropin-releasing hormone) and corticosterone; settings: fed to animals; cited from earlier work

In the case of `CC(C)=CCc1cc2c(cc1O)oc(=O)c1c3ccc(O)cc3oc21` [psoralidin], the “activity of hair follicle stem cells (luminescence, WNT/β-catenin luciferase)” value (NIH3T3 (WNT) cells) is given as “activated”, the “growth of androgen-independent prostate cancer cells” value [1] is given as “inhibiting the growth of androgen-independent prostate cancer cells both in vitro and in vivo” and the “speed of the progression to the catagen stage” value (hair follicle) is given as “significantly delayed”. For the same compound, the “time remaining in the anagen stage of the hair follicle cycle” value (hair follicle) was “remained longer in the anagen stage”, the “phosphorylation of protein kinase Akt” value (protein kinase Akt) was “inhibits the phosphorylation of protein kinase Akt” and the “levels of stress hormones CRH and corticosterone” value [2] was “lower the levels of hormones of CRH (Corticotropin-releasing hormone) and corticosterone”.
